{"source": "patent US12398160B2", "about": "“Cot modulators and methods of use thereof” (Gilead Sciences, Inc., priority 2019, dated 2025)", "assay": "In vivo dog pharmacokinetics", "details": "for AUC0-72 h: beagle dogs N=3", "key": {"[1]": {"details": "plasma level of the labelled analyte after oral dose of Compound B (9.7 mg-eq/kg), powder in capsule"}}, "data": [{"smiles": "Cn1ccc2c([C@@H](c3cn(C45CC(C4)C5)nn3)N(C(=O)OCOP(=O)(O)O)c3cc(Cl)c4ncc(C#N)c(NCC(C)(C)C)c4c3)cccc2c1=O", "note": "[Compound B]", "values": [{"measurement": "AUC0-72 h", "setting": "[1]", "result": "BLQ"}]}, {"smiles": "Cn1ccc2c([C@@H](c3cn(C45CC(C4)C5)nn3)N(C(=O)OCO)c3cc(Cl)c4ncc(C#N)c(NCC(C)(C)C)c4c3)cccc2c1=O", "note": "[Intermediate A]", "values": [{"measurement": "AUC0-72 h", "setting": "[1]", "result": "BLQ"}]}, {"smiles": "Cn1ccc2c([C@@H](c3cn(C45CC(C4)C5)nn3)N(C(=O)OCCCOP(=O)(O)O)c3cc(Cl)c4ncc(C#N)c(NCC(C)(C)C)c4c3)cccc2c1=O", "note": "[Compound C]", "values": [{"measurement": "In vivo conversion after dosing", "setting": "beagle dogs, Compound C solution formulation, 72 hour period", "result": "converted in vivo to both Compound D and Compound A in measurable amounts"}, {"measurement": "AUC0-72 h", "setting": "plasma level of the labelled analyte after oral dose of Compound C (3 mg-eq/kg), 3 mg/mL solution", "result": "BLQ"}]}, {"smiles": "Cn1ccc2c([C@H](Nc3cc(Cl)c4ncc(C#N)c(NCC(C)(C)C)c4c3)c3cn(C45CC(C4)C5)nn3)cccc2c1=O", "note": "[Compound A]", "values": [{"measurement": "AUC0-72 h for Compound A in plasma, dosing with Compound B compared with equivalent dose of Compound A", "setting": "beagle dogs, powder in capsule, after dosing with Compound B versus Compound A", "result": "higher"}]}]}
